US20240390340A1 (INCYTE CORPORATION, priority 2023, published 2024)

How the values were obtained:
KRAS G12V = KRAS G12V (Homo sapiens, UniProt P01116, G12V); assay: GDP-GTP exchange assay (bodipy-GDP/GppNHp, SOS1), KRAS G12V; type: biochemical; details: KRAS G12V mutant; value for the most potent isomer quoted for certain compounds; read-out: G12V (KRAS G12V exchange assay IC50)
KRAS G12D = KRAS G12D (Homo sapiens, UniProt P01116, G12D); assay: GDP-GTP exchange assay (bodipy-GDP/GppNHp, SOS1), KRAS G12D; type: biochemical; details: bodipy-loaded KRAS G12D 2.5 nM, 4 h pre-incubation; value for the most potent isomer quoted for certain compounds; read-out: G12D (KRAS G12D exchange assay IC50)
Chain of KRAS G12D (P01116 1-188 isoform P01116-2 G12D): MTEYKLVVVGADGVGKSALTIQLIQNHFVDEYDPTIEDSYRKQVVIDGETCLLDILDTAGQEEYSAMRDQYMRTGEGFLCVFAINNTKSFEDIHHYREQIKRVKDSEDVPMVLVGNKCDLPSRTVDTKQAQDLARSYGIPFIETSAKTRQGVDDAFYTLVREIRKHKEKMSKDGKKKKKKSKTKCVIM

Chain of KRAS G12V (P01116 1-188 isoform P01116-2 G12V): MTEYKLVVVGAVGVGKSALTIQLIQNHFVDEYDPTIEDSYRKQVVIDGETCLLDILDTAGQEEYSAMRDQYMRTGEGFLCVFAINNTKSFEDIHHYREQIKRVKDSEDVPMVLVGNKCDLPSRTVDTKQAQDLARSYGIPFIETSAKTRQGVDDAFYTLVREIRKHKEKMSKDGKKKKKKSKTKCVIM

SMILES	IC50 (KRAS G12V)	IC50 (KRAS G12D)
Cc1nc2c(F)c(-c3cccc(Cl)c3Cl)c(CCC#N)cc2c2c1cc([C@H]1C[C@H](n3cc(Cc4ccccc4)nn3)CN1C(=O)C1CC1)n2[C@H]1[C@H]2CN[C@@H]1C2 [Example 145]	≤ 100 nM	≤ 100 nM
Cc1ncccc1O[C@H]1C[C@H](c2cc3c(C)nc4c(F)c(-c5cccc(Cl)c5Cl)c(CCC#N)cc4c3n2[C@H]2[C@H]3CN[C@@H]2C3)N(C(=O)C2CC2)C1 [Example 129]	≤ 100 nM	≤ 100 nM
Cc1nc2c(F)c(-c3cccc(Cl)c3Cl)c(CCC#N)cc2c2c1cc([C@H]1C[C@H](Oc3cnn(CC(F)F)c3C)CN1C(=O)C1CC1)n2[C@H]1[C@H]2CN[C@@H]1C2 [Example 410]	≤ 100 nM	≤ 100 nM
N#CCCc1cc2c(nc(C3CC4CCCC3N4)c3cc([C@H]4C[C@H](OCc5c(F)cccc5F)CN4C(=O)C4CC4)n([C@H]4[C@H]5CN[C@@H]4C5)c32)c(F)c1-c1cccc(Cl)c1Cl (stereo partly shown) [Example 246]	≤ 100 nM	100 to 1000 nM
Cc1nc2c(F)c(-c3cccc(Cl)c3Cl)c(CCC#N)cc2c2c1cc([C@H]1C[C@H](OCc3c(F)cccc3F)CN1C(=O)N(C)c1ccccc1)n2[C@H]1[C@H]2CN[C@@H]1C2 [Example 197]	≤ 100 nM	100 to 1000 nM
Cc1nc2c(F)c(-c3cccc(Cl)c3Cl)c(CCC#N)cc2c2c1cc([C@H]1C[C@H](Oc3cccc(F)c3)CN1C(=O)C1CC1)n2[C@H]1[C@H]2CN[C@@H]1C2 [Example 122]	≤ 100 nM	≤ 100 nM
COC1CN(c2ccnc(O[C@H]3C[C@H](c4cc5c(C)nc6c(F)c(-c7cccc(Cl)c7Cl)c(CCC#N)cc6c5n4[C@H]4[C@H]5CN[C@@H]4C5)N(C(=O)C4CC4)C3)c2)C1 [Example 367]	≤ 100 nM	≤ 100 nM
Cc1csnc1C(C)O[C@H]1C[C@H](c2cc3c(C(C)O)nc4c(F)c(-c5cccc(Cl)c5Cl)c(CCC#N)cc4c3n2[C@H]2[C@H]3CN[C@@H]2C3)N(C(=O)C2CC2)C1 (stereo partly shown) [Example 334]	≤ 100 nM	≤ 100 nM
COc1cc(F)cc(O[C@H]2C[C@H](c3cc4c(C)nc5c(F)c(-c6cccc(Cl)c6Cl)c(CCC#N)cc5c4n3[C@H]3[C@H]4CN[C@@H]3C4)N(C(=O)C3CC3)C2)c1 [Example 190]	≤ 100 nM	≤ 100 nM
Cc1nc2c(F)c(-c3cccc(Cl)c3Cl)c(CCC#N)cc2c2c1cc([C@H]1C[C@H](OCc3ccc(C(F)(F)F)nc3)CN1C(=O)C1CC1)n2[C@H]1[C@H]2CN[C@@H]1C2 [Example 260]	≤ 100 nM	≤ 100 nM
Cc1nc2c(F)c(-c3cccc(Cl)c3Cl)c(CCC#N)cc2c2c1cc([C@H]1C[C@H](OC(C)c3ccccc3)CN1C(=O)C1CC1)n2[C@H]1[C@H]2CN[C@@H]1C2 (stereo partly shown) [Example 93]	≤ 100 nM	≤ 100 nM
Cc1nc2c(F)c(-c3cccc(Cl)c3Cl)c(CCC#N)cc2c2c1cc([C@H]1C[C@H](n3cccn3)CN1C(=O)C1CC1)n2[C@H]1[C@H]2CN[C@@H]1C2 [Example 314]	≤ 100 nM	≤ 100 nM
Cc1csc(CO[C@H]2C[C@H](c3cc4c(C)nc5c(F)c(-c6cccc(Cl)c6Cl)c(CCC#N)cc5c4n3[C@H]3[C@H]4CN[C@@H]3C4)N(C(=O)C3CC3)C2)n1 [Example 359]	≤ 100 nM	≤ 100 nM
N#CCCc1cc2c(nc(C3=CCOCC3)c3cc([C@H]4C[C@H](OCc5c(F)cccc5F)CN4C(=O)C4CC4)n([C@H]4[C@H]5CN[C@@H]4C5)c32)c(F)c1-c1cccc(Cl)c1Cl [Example 218]	≤ 100 nM	≤ 100 nM
Cc1cc(C)n([C@H]2C[C@H](c3cc4c(C)nc5c(F)c(-c6cccc(Cl)c6Cl)c(CCC#N)cc5c4n3[C@H]3[C@H]4CN[C@@H]3C4)N(C(=O)C3CC3)C2)n1 [Example 355]	≤ 100 nM	≤ 100 nM
Cc1nc2c(F)c(-c3cccc(Cl)c3Cl)c(CCC#N)cc2c2c1cc([C@H]1C[C@H](OCc3nc4ccccc4s3)CN1C(=O)C1CC1)n2[C@H]1[C@H]2CN[C@@H]1C2 [Example 360]	≤ 100 nM	≤ 100 nM
Cc1nc2c(F)c(-c3cccc(Cl)c3Cl)c(CCC#N)cc2c2c1cc([C@H]1C[C@H](Oc3cnn(C)c3)CN1C(=O)C1CC1)n2[C@H]1[C@H]2CN[C@@H]1C2 [Example 135]	≤ 100 nM	≤ 100 nM
Cc1nc2c(F)c(-c3cccc(Cl)c3Cl)c(CCC#N)cc2c2c1cc([C@H]1C[C@H](OCc3ccccc3)CN1C(=O)C1(C)CC1)n2[C@H]1[C@H]2CN[C@@H]1C2 [Example 127]	≤ 100 nM	≤ 100 nM
Cc1nc2c(F)c(-c3cccc(Cl)c3Cl)c(CCC#N)cc2c2c1cc([C@H]1C[C@H](n3cc(C4CCOC4)nn3)CN1C(=O)C1CC1)n2[C@H]1C2CNC1C2 (stereo partly shown) [Example 181]	≤ 100 nM	≤ 100 nM
Cc1nc2c(F)c(-c3cccc(Cl)c3Cl)c(CCC#N)cc2c2c1cc([C@H]1C[C@H](OCc3cccnc3N)CN1C(=O)C1CC1)n2[C@H]1[C@H]2CN[C@@H]1C2 [Example 149]	≤ 100 nM	≤ 100 nM
